Reference: ChEMBL document CHEMBL1123798, “Stereocontrolled syntheses for the six diastereomeric 1,2-dihydroxy-4,5-diaminocyclohexanes: PtII complexes and P-388 antitumor properties” (J Med Chem, 1987)

Legend:
Assay type in all cases: functional, organism-based
Settings in all cases: Mus musculus
P388 [1] = assay: Number of treated mice to that of control against P388 leukemia in CDF1 mice at a dose of 1.5 mg/kg administered intraperitoneally; active; parameters: dose 1.5 mg/kg
P388 [2] = assay: Median survival time against P388 leukemia in CDF1 mice at a dose of 6 mg/kg administered intraperitoneally; […]; parameters: dose 6 mg/kg
P388 [3] = assay: Number of treated mice to that of control against P388 leukemia in CDF1 mice at a dose of 6 mg/kg administered intraperitoneally; active; parameters: dose 6 mg/kg
P388 [4] = assay: Median survival time against P388 leukemia in CDF1 mice at a dose of 3 mg/kg administered intraperitoneally; […]; parameters: dose 3 mg/kg
P388 [5] = assay: Number of treated mice to that of control against P388 leukemia in CDF1 mice at a dose of 3 mg/kg administered intraperitoneally; active; parameters: dose 3 mg/kg
P388 [6] = assay: Median survival time against P388 leukemia in CDF1 mice at a dose of 1.5 mg/kg administered intraperitoneally; […]; parameters: dose 1.5 mg/kg

CISPLATIN
T/C (P388 [1]): 158 | MST (P388 [2]): 24.5 | T/C (P388 [3]): 249 | MST (P388 [4]): 18.5 | T/C (P388 [5]): 188 | MST (P388 [6]): 15.5
